# Measured values published in ChEMBL document CHEMBL1201862, “PubChem BioAssay data set” (2004).
#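 48-hour exposure; five concentrations; linearly interpolated endpoints. At the GI50, growth is halved.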 The source made the active and inactive calls. Rule as the data show it: active = GI50 up to about 1.1 µM and inactive = higher.
# What was measured:
# Experiment in all cases: growth of human tumour cells (NCI), 48 h
# [1] = test system: OVCAR-4
# [2] = test system: NCI-H23
# [3] = test system: CCRF-CEM
# [4] = test system: SK-MEL-5
# [5] = test system: TK-10
# [6] = test system: UACC-62
# [7] = test system: OVCAR-8
# [8] = test system: OVCAR-5
# [9] = test system: ACHN
# [10] = test system: HT-29
# [11] = test system: SF-539
# [12] = test system: NCI-H460
# [13] = test system: HCT-15
# [14] = test system: HCC 2998
# [15] = test system: COLO 205
# [16] = test system: K562
SMILES,GI50 [1],GI50 [2],GI50 [3],GI50 [4],GI50 [5],GI50 [6],GI50 [7],GI50 [8],GI50 [9],GI50 [10],GI50 [11],GI50 [12],GI50 [13] [µM],GI50 [14],GI50 [15],GI50 [16]
COc1cc2c(cc1OC)c1c(OC)c(OC)cc3c1c1c2sc(=S)n1CC3,55 µM (inactive),44.4 µM (inactive),24.5 µM (inactive),41.5 µM (inactive),> 100 µM (inactive),24.4 µM (inactive),41.8 µM (inactive),> 100 µM (inactive),> 100 µM (inactive),50.2 µM (inactive),48.3 µM (inactive),42.7 µM (inactive),42.3,53.1 µM (inactive),> 100 µM (inactive),21.6 µM (inactive)
COC(=O)C(/C(=N\O)C(=O)Nc1ccc(Br)cc1)c1nc2ccccc2nc1O (stereo unspecified),64.7 µM (inactive),> 100 µM (inactive),25.3 µM (inactive),28.6 µM (inactive),> 10 µM (inactive),26.9 µM (inactive),> 100 µM (inactive),> 100 µM (inactive),49.2 µM (inactive),57.1 µM (inactive),24.4 µM (inactive),89.9 µM (inactive),64.7,92 µM (inactive),18.5 µM (inactive),26.4 µM (inactive)
COc1ccc(/C=C2\CCC(C)(CN(C)C)C2=O)cc1OC (stereo unspecified),> 100 µM (inactive),> 100 µM (inactive),> 100 µM (inactive),> 100 µM (inactive),> 100 µM (inactive),> 100 µM (inactive),> 100 µM (inactive),> 100 µM (inactive),> 100 µM (inactive),> 100 µM (inactive),> 100 µM (inactive),> 100 µM (inactive),> 100,> 100 µM (inactive),> 100 µM (inactive),> 100 µM (inactive)
CC(=O)Oc1cc2c(cc1OC(C)=O)C1(C)CCC2(C)c2cc(OC(C)=O)c(OC(C)=O)cc21,14.4 µM (inactive),43.2 µM (inactive),2.87 µM (inactive),22.6 µM (inactive),26.5 µM (inactive),13.2 µM (inactive),15 µM (inactive),28.4 µM (inactive),26.1 µM (inactive),4.75 µM (inactive),,20.8 µM (inactive),6.92,25.1 µM (inactive),51.4 µM (inactive),5.6 µM (inactive)
CC(=O)OC1COC(N2C(=O)/C(=N\Nc3ccc([N+](=O)[O-])cc3)c3cc(Br)c([N+](=O)[O-])cc32)C(OC(C)=O)C1OC(C)=O (stereo unspecified),32.9 µM (inactive),31.6 µM (inactive),61.5 µM (inactive),24.1 µM (inactive),> 100 µM (inactive),15.3 µM (inactive),> 100 µM (inactive),> 100 µM (inactive),21.6 µM (inactive),74.5 µM (inactive),68.2 µM (inactive),> 100 µM (inactive),33,> 100 µM (inactive),> 100 µM (inactive),41 µM (inactive)
COc1cccc(/C=C2\CCC(CCN(C)C)(C3=CCCC3)C2=O)c1 (stereo unspecified),16.4 µM (inactive),19.3 µM (inactive),19.1 µM (inactive),17.7 µM (inactive),15.8 µM (inactive),15.4 µM (inactive),17.3 µM (inactive),14.6 µM (inactive),16.7 µM (inactive),13.8 µM (inactive),16.1 µM (inactive),15.8 µM (inactive),16.2,16.7 µM (inactive),8.3 µM (inactive),15.5 µM (inactive)
CN(N=O)C(=O)N(N)CCCCC(NC(=O)OCc1ccccc1)C(=O)OCc1ccccc1 (stereo unspecified),33.7 µM (inactive),14.6 µM (inactive),14.3 µM (inactive),44.7 µM (inactive),> 100 µM (inactive),18.5 µM (inactive),33.7 µM (inactive),> 100 µM (inactive),19 µM (inactive),79.6 µM (inactive),16 µM (inactive),32.5 µM (inactive),90.4,18.2 µM (inactive),18.5 µM (inactive),45.4 µM (inactive)
CCC(=O)C12OC3OC(C)(C)OC3C1OC(C)(C)O2 (stereo unspecified),> 100 µM (inactive),> 100 µM (inactive),> 100 µM (inactive),> 10 µM (inactive),> 100 µM (inactive),> 100 µM (inactive),> 100 µM (inactive),> 100 µM (inactive),> 100 µM (inactive),> 100 µM (inactive),> 100 µM (inactive),> 100 µM (inactive),,> 100 µM (inactive),,> 100 µM (inactive)
CC(C)N1CN(C(C(=O)N[C@@H]2C(=O)N3C2SC(C)(C)C3C(=O)O)c2ccccc2)CSC1=S (stereo partly specified),> 100 µM (inactive),> 100 µM (inactive),> 100 µM (inactive),> 100 µM (inactive),> 100 µM (inactive),> 100 µM (inactive),> 100 µM (inactive),> 100 µM (inactive),> 100 µM (inactive),96.6 µM (inactive),> 100 µM (inactive),43.7 µM (inactive),22.1,,46.9 µM (inactive),30.6 µM (inactive)
COc1ccc(NC(=O)c2cc(OC)c(OC)c(OC)c2)cc1,> 100 µM (inactive),40.7 µM (inactive),37.8 µM (inactive),28.2 µM (inactive),> 100 µM (inactive),31 µM (inactive),74.6 µM (inactive),> 100 µM (inactive),83.8 µM (inactive),36.8 µM (inactive),48 µM (inactive),35.9 µM (inactive),33.4,42.2 µM (inactive),26.5 µM (inactive),24.7 µM (inactive)
CN1CCN(CN2C(=O)C3C4C=CC(C3C2=O)C2C3C(=O)N(CN5CCN(C)CC5)C(=O)C3C42)CC1 (stereo unspecified),21.3 µM (inactive),21.2 µM (inactive),29.2 µM (inactive),17 µM (inactive),38 µM (inactive),22.2 µM (inactive),17.7 µM (inactive),30.8 µM (inactive),28.2 µM (inactive),33.4 µM (inactive),22.2 µM (inactive),16.1 µM (inactive),16.9,34.7 µM (inactive),17.5 µM (inactive),26.9 µM (inactive)
C[P+](C)(CC(F)(F)F)c1ccccc1,,> 100 µM (inactive),> 100 µM (inactive),> 100 µM (inactive),> 100 µM (inactive),> 100 µM (inactive),> 100 µM (inactive),> 100 µM (inactive),> 100 µM (inactive),> 100 µM (inactive),> 100 µM (inactive),> 100 µM (inactive),> 100,> 100 µM (inactive),> 100 µM (inactive),> 100 µM (inactive)
O=C1CCCC1NC(=O)C(F)(F)F (stereo unspecified),> 100 µM (inactive),> 100 µM (inactive),> 100 µM (inactive),> 100 µM (inactive),> 100 µM (inactive),> 100 µM (inactive),> 100 µM (inactive),> 100 µM (inactive),> 100 µM (inactive),> 100 µM (inactive),> 100 µM (inactive),> 100 µM (inactive),,,,> 100 µM (inactive)
CNC(=O)CN(CC(=O)O)C(=O)NC,> 100 µM (inactive),> 100 µM (inactive),> 100 µM (inactive),> 100 µM (inactive),> 100 µM (inactive),> 100 µM (inactive),> 100 µM (inactive),> 100 µM (inactive),> 100 µM (inactive),> 100 µM (inactive),> 100 µM (inactive),,> 100,> 100 µM (inactive),> 100 µM (inactive),> 100 µM (inactive)
C#CC1/C(=C\C(=O)OC)CCCC1O (stereo unspecified),> 100 µM (inactive),> 100 µM (inactive),> 100 µM (inactive),> 100 µM (inactive),> 100 µM (inactive),> 100 µM (inactive),> 100 µM (inactive),> 100 µM (inactive),> 100 µM (inactive),> 100 µM (inactive),> 100 µM (inactive),> 100 µM (inactive),> 100,> 100 µM (inactive),> 100 µM (inactive),> 100 µM (inactive)
O=C(O)CN(c1ccccc1)S(=O)(=O)c1ccccc1[N+](=O)[O-],> 100 µM (inactive),> 100 µM (inactive),> 100 µM (inactive),> 100 µM (inactive),> 100 µM (inactive),> 100 µM (inactive),> 100 µM (inactive),> 100 µM (inactive),> 100 µM (inactive),> 100 µM (inactive),> 100 µM (inactive),> 100 µM (inactive),> 100,,> 100 µM (inactive),> 10 µM (inactive)
COc1ccc2n[se]nc2c1,> 100 µM (inactive),> 100 µM (inactive),> 100 µM (inactive),50.1 µM (inactive),70.6 µM (inactive),> 100 µM (inactive),> 100 µM (inactive),> 100 µM (inactive),> 100 µM (inactive),> 100 µM (inactive),23.1 µM (inactive),,> 100,38.6 µM (inactive),> 100 µM (inactive),> 100 µM (inactive)
COc1ccc(C2C(Cl)C(=O)N2n2cnc3ccccc3c2=O)cc1OC (stereo unspecified),> 100 µM (inactive),42 µM (inactive),> 10 µM (inactive),> 100 µM (inactive),> 100 µM (inactive),74.1 µM (inactive),> 100 µM (inactive),> 100 µM (inactive),> 100 µM (inactive),> 100 µM (inactive),,81.1 µM (inactive),> 100,> 100 µM (inactive),> 100 µM (inactive),> 100 µM (inactive)
